The values below come from article PMC13696528, “Combined Immune‐Peptide Nanofiber with HSP70/AKT/mTOR Axis Blockade Enhances Photothermal Immunotherapy, Inhibiting Tumor Growth and Recurrence” (Advanced Science, 2026).

Each structure is given as a SMILES string.

One experiment concerns CT26 cells. Description: Colony formation assay after PTIT. In kind it is cell-based, mouse. The conditions noted are these: PSP@IR-CF3 + NIR plus VER-155008 (0.2 μM) or Rapa (10 nM), 14 days, n = 3. As to the method:
CT26 cells were harvested and prepared as a single-cell suspension. […] Following the indicated treatments, cells were cultured under standard conditions (37 °C, 5% CO₂) for 14 days until visible colonies had formed.
The culture medium was then removed, and the cells were gently washed with PBS. Colonies were fixed with 4% paraformaldehyde for 10–15 min and stained with crystal violet for 10–20 min. Excess dye was removed by washing with distilled water, and the plates were air-dried. Colonies were quantified using ImageJ software (RRID:SCR_003070).

Experiment [1] relates to CT26-Luc tumor-bearing mice. Nature of the experiment: In vivo recurrence study with HSP70 inhibition. Details: species or system mouse. The conditions noted are these: combined with PTIT (PSP@IR-CF3 + NIR), VER-155008 20 mg kg⁻¹ d⁻¹ i.p. 7 days, n = 10, 28 days. As to the method:
CT26-Luc cells were cultured under standard conditions and harvested during the logarithmic growth phase. BALB/c mice were subcutaneously inoculated with CT26-Luc cells to establish tumor-bearing models.
In the combination group, the HSP70 inhibitor VER-155008 was administered via intraperitoneal injection at a dose of 20 mg kg⁻¹ d⁻¹ for 7 consecutive days beginning immediately after NIR irradiation. Tumor growth was monitored regularly, and mice were followed for 28 days after treatment to evaluate tumor recurrence. Tumor recurrence was defined as the reappearance of measurable tumor growth at the original treatment site following initial tumor regression.

For `CO[C@H]1C[C@@H]2CC[C@@H](C)[C@@](O)(O2)C(=O)C(=O)N2CCCC[C@H]2C(=O)O[C@H]([C@H](C)C[C@@H]2CC[C@@H](O)[C@H](OC)C2)CC(=O)[C@H](C)/C=C(\C)[C@@H](O)[C@@H](OC)C(=O)[C@H](C)C[C@H](C)/C=C/C=C/C=C/1C` [Rapamycin, rapamycin], the “colony formation and clonogenic recovery after PTIT” value with CT26 cells was “reduced colony formation and impaired clonogenic recovery”.

Consider `N#Cc1ccc(COC[C@H]2O[C@@H](n3c(NCc4ccc(Cl)c(Cl)c4)nc4c(N)ncnc43)[C@H](O)[C@@H]2O)cc1` [VER-155008], for which, in the experiment on CT26 cells, the “colony formation and clonogenic recovery after PTIT” value is “reduced colony formation and impaired clonogenic recovery”. Also, the “recurrent tumors” value in experiment [1] is “no recurrent tumors”.
